# From US8541460B2, “PDK-1/Akt signaling inhibitors” (The Ohio State University, priority 2003, dated 2013)
# Tests used:
# immunoprecipitated Akt = assay: Direct inhibition of immunoprecipitated Akt kinase activity; assay type: biochemical, human
# 786-0 = assay: NCI DTP cell line screen (SRB), Renal Cancer; assay type: cell-based
# Experimental: (§1) Screening of compounds 70 and 71 against several cancer cell lines The human tumor cell lines of the cancer screening panel are grown in RPMI 1640 medium containing 5% fetal bovine serum and 2 mM L-glutamine. For a typical screening experiment, cells are inoculated into 96 well microtiter plates in 100 μL at plating densities ranging from 5,000 to 40,000 cells/well depending on the doubling time of individual cell lines. After cell inoculation, the microtiter plates are incubated at 37° C., 5% CO2, 95% air and 100% relative humidity for 24 h prior to addition of experimental drugs.
# (§2) After 24 h, two plates of each cell line are fixed in situ with TCA, to represent a measurement of the cell population for each cell line at the time of drug addition (Tz). Experimental drugs are solubilized in dimethyl sulfoxide at 400-fold the desired final maximum test concentration and stored frozen prior to use. At the time of drug addition, an aliquot of frozen concentrate is thawed and diluted to twice the desired final maximum test concentration with complete medium containing 50 μg/ml gentamicin. Additional four, 10-fold or ½ log serial dilutions are made to provide a total of five drug concentrations plus control. Aliquots of 100 μl of these different drug dilutions are added to the appropriate microtiter wells already containing 100 μl of medium, resulting in the required final drug concentrations.
# (§3) Following drug addition, the plates are incubated for an additional 48 h at 37° C., 5% CO2, 95% air, and 100% relative humidity. For adherent cells, the assay is terminated by the addition of cold TCA. Cells are fixed in situ by the gentle addition of 50 μl of cold 50% (w/v) TCA (final concentration, 10% TCA) and incubated for 60 minutes at 4° C. The supernatant is discarded, and the plates are washed five times with tap water and air dried. Sulforhodamine B (SRB) solution (100 μl) at 0.4% (w/v) in 1% acetic acid is added to each well, and plates are incubated for 10 minutes at room temperature. After staining, unbound dye is removed by washing five times with 1% acetic acid and the plates are air dried. Bound stain is subsequently solubilized with 10 mM trizma base, and the absorbance is read on an automated plate reader at a wavelength of 515 nm. For suspension cells, the methodology is the same except that the assay is terminated by fixing settled cells at the bottom of the wells by gently adding 50 μl of 80% TCA (final concentration, 16% TCA). Using the seven absorbance measurements [time zero, (Tz), control growth, (C), and test growth in the presence of drug at the five concentration levels (Ti)], the percentage growth is calculated at each of the drug concentrations levels. Percentage growth inhibition is calculated as: [(Ti−Tz)/(C−Tz)]×100 for concentrations for which Ti>/=Tz [(Ti−Tz)/Tz]×100 for concentrations for which Ti<Tz
# (§4) Three dose response parameters are calculated for each experimental agent. […] The drug concentration resulting in total growth inhibition (TGI) is calculated from Ti=Tz. […] Values are calculated for each of these three parameters if the level of activity is reached; however, if the effect is not reached or is exceeded, the value for that parameter is expressed as greater or less than the maximum or minimum concentration tested.
# (§5) The methods described were used to test compounds 70 and 71 on a panel of sixty cell lines under a screening service provided by the Developmental Therapeutics Program at the National Institutes of Health. Shown in FIG. 1C are 1, RPMI-8226 leukemia cells; 2; NCI-H322M non-small cell lung cancer cells; 3, HT29 colon cancer cells; 4, U251 CNS cancer cells; 5, SK-MEL-28 melanoma cancer cells; 6, SK-OV-3 ovarian cancer cells; 7, RXF 393 renal cancer cells; 8, PC-3 prostate cancer cells; 9, MDA-MB-231 breast cancer cells.
# TK-10 = assay: NCI DTP cell line screen (SRB), Renal Cancer; assay type: cell-based
# Experimental: as §1, §2, §3, §4, §5
# HOP-62 = assay: NCI DTP cell line screen (SRB), Non-Small Cell Lung Cancer; assay type: cell-based
# Experimental: as §1, §2, §3, §4, §5
# A549/ATCC = assay: as above; assay type: cell-based
# Experimental: as §1, §2, §3, §4, §5
# NCI-H322M = assay: as above; assay type: cell-based
# Experimental: as §1, §2, §3, §4, §5
# NCI-H460 = assay: as above; assay type: cell-based
# Experimental: as §1, §2, §3, §4, §5
# NCI-H23 = assay: as above; assay type: cell-based
# Experimental: as §1, §2, §3, §4, §5
# EKVX = assay: as above; assay type: cell-based
# Experimental: as §1, §2, §3, §4, §5
# [1] = read-out: LC50 (the source's name)
compound,measurement,setting,value
"N=C(N)Nc1ccc(-n2nc(C(F)(F)F)cc2-c2ccc3c(ccc4ccccc43)c2)cc1 [Compound 71, 4-[5-(2-Phenanthrenyl)-3-(trifluoromethyl)-1H-pyrazol-1-yl]-phenyl-guanidine]",direct inhibitory effect on immunoprecipitated Akt activity,immunoprecipitated Akt,no appreciable direct inhibition
same,GI50,786-0,1490 nM
same,TGI,786-0,2.91E−06
same,Mean Optical Densities,786-0; Log10 Concentration −4.0,0.458
same,Percent Growth,786-0; Log10 Concentration −4.0,−30%
same,Mean Optical Densities,786-0; Log10 Concentration −5.0,0.046
same,Percent Growth,786-0; Log10 Concentration −5.0,−93%
same,Mean Optical Densities,786-0; Log10 Concentration −6.0,1.663
same,Percent Growth,786-0; Log10 Concentration −6.0,80%
same,Mean Optical Densities,786-0; Log10 Concentration −7.0,1.868
same,Percent Growth,786-0; Log10 Concentration −7.0,96%
same,Mean Optical Densities,786-0; Log10 Concentration −8.0,1.862
same,Percent Growth,786-0; Log10 Concentration −8.0,96%
same,GI50,TK-10,1320 nM
same,TGI,TK-10,2.59E−06
same,Mean Optical Densities,TK-10; Log10 Concentration −4.0,0.245
same,Percent Growth,TK-10; Log10 Concentration −4.0,−64%
same,Mean Optical Densities,TK-10; Log10 Concentration −5.0,−0.021
same,Percent Growth,TK-10; Log10 Concentration −5.0,−100%
same,Mean Optical Densities,TK-10; Log10 Concentration −6.0,0.998
same,Percent Growth,TK-10; Log10 Concentration −6.0,71%
same,Mean Optical Densities,TK-10; Log10 Concentration −7.0,1.087
same,Percent Growth,TK-10; Log10 Concentration −7.0,90%
same,Mean Optical Densities,TK-10; Log10 Concentration −8.0,1.032
same,Percent Growth,TK-10; Log10 Concentration −8.0,78%
same,CC50,TK-10; [1],5090 nM
same,GI50,HOP-62,1720 nM
same,TGI,HOP-62,3.12E−06
same,Mean Optical Densities,HOP-62; Log10 Concentration −4.0,0.329
same,Percent Growth,HOP-62; Log10 Concentration −4.0,−36%
same,Mean Optical Densities,HOP-62; Log10 Concentration −5.0,0.011
same,Percent Growth,HOP-62; Log10 Concentration −5.0,−98%
same,Mean Optical Densities,HOP-62; Log10 Concentration −6.0,1.255
same,Percent Growth,HOP-62; Log10 Concentration −6.0,96%
same,Mean Optical Densities,HOP-62; Log10 Concentration −7.0,1.267
same,Percent Growth,HOP-62; Log10 Concentration −7.0,97%
same,Mean Optical Densities,HOP-62; Log10 Concentration −8.0,1.285
same,Percent Growth,HOP-62; Log10 Concentration −8.0,100%
same,GI50,A549/ATCC,1680 nM
same,TGI,A549/ATCC,3.04E−06
same,Mean Optical Densities,A549/ATCC; Log10 Concentration −4.0,0.135
same,Percent Growth,A549/ATCC; Log10 Concentration −4.0,−63%
same,Mean Optical Densities,A549/ATCC; Log10 Concentration −5.0,−0.032
same,Percent Growth,A549/ATCC; Log10 Concentration −5.0,−100%
same,Mean Optical Densities,A549/ATCC; Log10 Concentration −6.0,1.121
same,Percent Growth,A549/ATCC; Log10 Concentration −6.0,93%
same,Mean Optical Densities,A549/ATCC; Log10 Concentration −7.0,1.145
same,Percent Growth,A549/ATCC; Log10 Concentration −7.0,96%
same,Mean Optical Densities,A549/ATCC; Log10 Concentration −8.0,1.140
same,Percent Growth,A549/ATCC; Log10 Concentration −8.0,96%
same,CC50,A549/ATCC; [1],5510 nM
same,GI50,NCI-H322M,1360 nM
same,TGI,NCI-H322M,2.64E−06
same,Mean Optical Densities,NCI-H322M; Log10 Concentration −4.0,0.257
same,Percent Growth,NCI-H322M; Log10 Concentration −4.0,−59%
same,Mean Optical Densities,NCI-H322M; Log10 Concentration −5.0,−0.052
same,Percent Growth,NCI-H322M; Log10 Concentration −5.0,−100%
same,Mean Optical Densities,NCI-H322M; Log10 Concentration −6.0,1.031
same,Percent Growth,NCI-H322M; Log10 Concentration −6.0,73%
same,Mean Optical Densities,NCI-H322M; Log10 Concentration −7.0,1.049
same,Percent Growth,NCI-H322M; Log10 Concentration −7.0,76%
same,Mean Optical Densities,NCI-H322M; Log10 Concentration −8.0,0.988
same,Percent Growth,NCI-H322M; Log10 Concentration −8.0,65%
same,CC50,NCI-H322M; [1],5140 nM
same,GI50,NCI-H460,1640 nM
same,TGI,NCI-H460,3.04E−06
same,Mean Optical Densities,NCI-H460; Log10 Concentration −4.0,0.257
same,Percent Growth,NCI-H460; Log10 Concentration −4.0,−20%
same,Mean Optical Densities,NCI-H460; Log10 Concentration −5.0,0.011
same,Percent Growth,NCI-H460; Log10 Concentration −5.0,−97%
same,Mean Optical Densities,NCI-H460; Log10 Concentration −6.0,1.650
same,Percent Growth,NCI-H460; Log10 Concentration −6.0,90%
same,Mean Optical Densities,NCI-H460; Log10 Concentration −7.0,1.658
same,Percent Growth,NCI-H460; Log10 Concentration −7.0,91%
same,Mean Optical Densities,NCI-H460; Log10 Concentration −8.0,1.654
same,Percent Growth,NCI-H460; Log10 Concentration −8.0,91%
same,GI50,NCI-H23,1790 nM
same,TGI,NCI-H23,3.18E−06
same,Mean Optical Densities,NCI-H23; Log10 Concentration −4.0,0.151
same,Percent Growth,NCI-H23; Log10 Concentration −4.0,−67%
same,Mean Optical Densities,NCI-H23; Log10 Concentration −5.0,−0.041
same,Percent Growth,NCI-H23; Log10 Concentration −5.0,−100%
same,Mean Optical Densities,NCI-H23; Log10 Concentration −6.0,1.679
same,Percent Growth,NCI-H23; Log10 Concentration −6.0,101%
same,Mean Optical Densities,NCI-H23; Log10 Concentration −7.0,1.515
same,Percent Growth,NCI-H23; Log10 Concentration −7.0,87%
same,Mean Optical Densities,NCI-H23; Log10 Concentration −8.0,1.585
same,Percent Growth,NCI-H23; Log10 Concentration −8.0,93%
same,CC50,NCI-H23; [1],5640 nM
same,GI50,EKVX,1060 nM
same,TGI,EKVX,2.24E−06
same,Mean Optical Densities,EKVX; Log10 Concentration −4.0,0.145
same,Percent Growth,EKVX; Log10 Concentration −4.0,−74%
same,Mean Optical Densities,EKVX; Log10 Concentration −5.0,−0.008
same,Percent Growth,EKVX; Log10 Concentration −5.0,−100%
same,Mean Optical Densities,EKVX; Log10 Concentration −6.0,0.711
same,Percent Growth,EKVX; Log10 Concentration −6.0,54%
same,Mean Optical Densities,EKVX; Log10 Concentration −7.0,0.737
same,Percent Growth,EKVX; Log10 Concentration −7.0,63%
same,Mean Optical Densities,EKVX; Log10 Concentration −8.0,0.713
same,Percent Growth,EKVX; Log10 Concentration −8.0,55%
same,CC50,EKVX; [1],4740 nM
